Results on ten cell lines are retold here after the supplement of paper PMC10307832.

Common to all, as to assay: relative viability (nuclei count vs DMSO), 5 days (fraction); higher = more cells survive
Compound in the test “KN-93 + Vorinostat”: CN(C/C=C/C1=CC=C(C=C1)Cl)CC2=CC=CC=C2N(CCO)S(=O)(=O)C3=CC=C(C=C3)OC [KN-93] + O=C(CCCCCCC(=O)Nc1ccccc1)NO [Vorinostat] (partner 1 µM)
In a few lines: (§1)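 Relative viability equals treated-well nuclei counts divided by vehicle-well nuclei counts. Counts came from 4× images of lung cancer cell lines grown in 1536-well plates for 5 days after pin-tool dosing on the day after seeding. Dosing used one drug alone or a fixed anchor-drug dose plus five library-drug doses (not always all listed) in √10 steps, and values are medians of duplicate plates.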

Compound in the test “KN-93 + Tozasertib”: CN(C/C=C/C1=CC=C(C=C1)Cl)CC2=CC=CC=C2N(CCO)S(=O)(=O)C3=CC=C(C=C3)OC [KN-93] + Cc1cc(Nc2cc(N3CCN(C)CC3)nc(Sc3ccc(NC(=O)C4CC4)cc3)n2)n[nH]1 [Tozasertib] (partner 0.1 µM)
In a few lines: as §1

Compound in the test “KN-93 + Alpelisib”: CN(C/C=C/C1=CC=C(C=C1)Cl)CC2=CC=CC=C2N(CCO)S(=O)(=O)C3=CC=C(C=C3)OC [KN-93] + Cc1nc(NC(=O)N2CCC[C@H]2C(N)=O)sc1-c1ccnc(C(C)(C)C(F)(F)F)c1 [Alpelisib] (partner 2 µM)
In a few lines:
as §1

Compound in the test “KN-93 + Phenformin”: CN(C/C=C/C1=CC=C(C=C1)Cl)CC2=CC=CC=C2N(CCO)S(=O)(=O)C3=CC=C(C=C3)OC [KN-93] + N=C(N)NC(=N)NCCc1ccccc1 [Phenformin] (partner 250 µM)
In a few lines: as §1

Compound in the test “KN-93 + Pictilisib”: CN(C/C=C/C1=CC=C(C=C1)Cl)CC2=CC=CC=C2N(CCO)S(=O)(=O)C3=CC=C(C=C3)OC [KN-93] + CS(=O)(=O)N1CCN(Cc2cc3nc(-c4cccc5[nH]ncc45)nc(N4CCOCC4)c3s2)CC1 [Pictilisib] (partner 1 µM)
In a few lines: as §1

Take EKVX: the relative viability with KN-93 + Vorinostat (first compound 0.08 µM) is 0.642; with KN-93 + Vorinostat (first compound 0.253 µM), 0.653; with KN-93 + Vorinostat (first compound 2.53 µM), 0.655; with KN-93 + Vorinostat (first compound 8 µM) it was 0.585; in the test with KN-93 + Tozasertib (first compound 0.08 µM), 0.378; with KN-93 + Tozasertib (first compound 0.253 µM), 0.48. Further, the relative viability stood at 0.369 with KN-93 + Tozasertib (first compound 2.53 µM); 0.301 with KN-93 + Tozasertib (first compound 8 µM); 0.728 with KN-93 + Alpelisib (first compound 0.08 µM); 0.845 with KN-93 + Alpelisib (first compound 0.253 µM); 1.02 with KN-93 + Alpelisib (first compound 2.53 µM); 0.692 with KN-93 + Alpelisib (first compound 8 µM). The relative viability with KN-93 + Phenformin (first compound 0.08 µM) amounted to 0.23; with KN-93 + Phenformin (first compound 0.253 µM), 0.224; in the test with KN-93 + Phenformin (first compound 2.53 µM), 0.239; with KN-93 + Phenformin (first compound 8 µM), 0.203; in the test with KN-93 + Pictilisib (first compound 0.08 µM), 0.396; in the test with KN-93 + Pictilisib (first compound 0.253 µM), 0.329. In addition, the relative viability in the test with KN-93 + Pictilisib (first compound 2.53 µM) was determined as 0.437; in the test with KN-93 + Pictilisib (first compound 8 µM) it was 0.39.
As to EMC-BAC-2, the relative viability amounted to 0.51 in the test with KN-93 + Vorinostat (first compound 0.08 µM); 0.534 with KN-93 + Vorinostat (first compound 0.253 µM); 0.399 with KN-93 + Vorinostat (first compound 2.53 µM); 0.345 in the test with KN-93 + Vorinostat (first compound 8 µM); 0.24 in the test with KN-93 + Tozasertib (first compound 0.08 µM); 0.276 with KN-93 + Tozasertib (first compound 0.253 µM). The relative viability in the test with KN-93 + Tozasertib (first compound 2.53 µM) was determined as 0.274; with KN-93 + Tozasertib (first compound 8 µM), 0.274; with KN-93 + Alpelisib (first compound 0.08 µM), 0.683; with KN-93 + Alpelisib (first compound 0.253 µM), 0.732; in the test with KN-93 + Alpelisib (first compound 2.53 µM), 0.928; with KN-93 + Alpelisib (first compound 8 µM), 0.676. Besides, the relative viability with KN-93 + Phenformin (first compound 0.08 µM) worked out at 0.501; in the test with KN-93 + Phenformin (first compound 0.253 µM) it was 0.596; in the test with KN-93 + Phenformin (first compound 2.53 µM), 0.548; in the test with KN-93 + Phenformin (first compound 8 µM), 0.458; with KN-93 + Pictilisib (first compound 0.08 µM), 0.477; in the test with KN-93 + Pictilisib (first compound 0.253 µM), 0.608. For the same cell line, the relative viability in the test with KN-93 + Pictilisib (first compound 2.53 µM) is 0.542; with KN-93 + Pictilisib (first compound 8 µM), 0.433.
With EPLC-272H, the relative viability with KN-93 + Vorinostat (first compound 0.08 µM) stood at 0.436; with KN-93 + Vorinostat (first compound 0.253 µM) it was 0.212; in the test with KN-93 + Vorinostat (first compound 2.53 µM) it was 0.274; in the test with KN-93 + Vorinostat (first compound 8 µM) it was 0.152; with KN-93 + Tozasertib (first compound 0.08 µM), 0.234; with KN-93 + Tozasertib (first compound 0.253 µM), 0.213. Moreover, the relative viability with KN-93 + Tozasertib (first compound 2.53 µM) turned out to be 0.317; in the test with KN-93 + Tozasertib (first compound 8 µM), 0.227; with KN-93 + Alpelisib (first compound 0.08 µM), 0.947; with KN-93 + Alpelisib (first compound 0.253 µM) it was 1.02; in the test with KN-93 + Alpelisib (first compound 2.53 µM), 1.04; in the test with KN-93 + Alpelisib (first compound 8 µM), 0.792. Further, the relative viability was found to be 0.276 with KN-93 + Phenformin (first compound 0.08 µM); 0.299 with KN-93 + Phenformin (first compound 0.253 µM); 0.276 with KN-93 + Phenformin (first compound 2.53 µM); 0.25 in the test with KN-93 + Phenformin (first compound 8 µM); 0.338 with KN-93 + Pictilisib (first compound 0.08 µM); 0.365 with KN-93 + Pictilisib (first compound 0.253 µM). Further, the relative viability in the test with KN-93 + Pictilisib (first compound 2.53 µM) was 0.294; with KN-93 + Pictilisib (first compound 8 µM), 0.276.
Take IA-LM: the relative viability with KN-93 + Vorinostat (first compound 0.08 µM) turned out to be 0.428; in the test with KN-93 + Vorinostat (first compound 0.253 µM) it was 1.02; with KN-93 + Vorinostat (first compound 2.53 µM), 0.982; with KN-93 + Vorinostat (first compound 8 µM), 1.05; with KN-93 + Alpelisib (first compound 0.08 µM) it was 0.765; with KN-93 + Alpelisib (first compound 0.253 µM), 0.746. For the same cell line, the relative viability with KN-93 + Alpelisib (first compound 2.53 µM) was found to be 0.773; in the test with KN-93 + Alpelisib (first compound 8 µM), 0.778; in the test with KN-93 + Pictilisib (first compound 0.08 µM), 0.27; in the test with KN-93 + Pictilisib (first compound 0.253 µM), 0.309; with KN-93 + Pictilisib (first compound 2.53 µM), 0.767; in the test with KN-93 + Pictilisib (first compound 8 µM), 0.349.
Turning to NCI-H1563, the relative viability with KN-93 + Alpelisib (first compound 0.08 µM) is 0.922; with KN-93 + Alpelisib (first compound 0.253 µM) it was 0.947; with KN-93 + Alpelisib (first compound 2.53 µM) it was 0.906; with KN-93 + Alpelisib (first compound 8 µM), 0.758; with KN-93 + Phenformin (first compound 0.08 µM) it was 0.706; in the test with KN-93 + Phenformin (first compound 0.253 µM) it was 0.633. In addition, the relative viability in the test with KN-93 + Phenformin (first compound 2.53 µM) came to 0.647; with KN-93 + Phenformin (first compound 8 µM) it was 0.626; with KN-93 + Pictilisib (first compound 0.08 µM) it was 0.661; with KN-93 + Pictilisib (first compound 0.253 µM) it was 0.618; in the test with KN-93 + Pictilisib (first compound 2.53 µM), 0.648; with KN-93 + Pictilisib (first compound 8 µM), 0.608.
Turning to NCI-H1650, the relative viability in the test with KN-93 + Vorinostat (first compound 0.08 µM) came out at 0.468; with KN-93 + Vorinostat (first compound 0.253 µM) it was 0.503; in the test with KN-93 + Vorinostat (first compound 2.53 µM), 0.541; with KN-93 + Vorinostat (first compound 8 µM), 0.431; with KN-93 + Tozasertib (first compound 0.08 µM) it was 0.39; with KN-93 + Tozasertib (first compound 0.253 µM) it was 0.339. Moreover, the relative viability with KN-93 + Tozasertib (first compound 2.53 µM) was 0.382; with KN-93 + Tozasertib (first compound 8 µM) it was 0.309; with KN-93 + Phenformin (first compound 0.08 µM) it was 0.468; with KN-93 + Phenformin (first compound 0.253 µM), 0.417; with KN-93 + Phenformin (first compound 2.53 µM), 0.571; in the test with KN-93 + Phenformin (first compound 8 µM) it was 0.25. Also, the relative viability amounted to 0.527 with KN-93 + Pictilisib (first compound 0.08 µM), 0.537 in the test with KN-93 + Pictilisib (first compound 0.253 µM), 0.582 with KN-93 + Pictilisib (first compound 2.53 µM) and 0.239 with KN-93 + Pictilisib (first compound 8 µM).
On to NCI-H1703, for which the relative viability with KN-93 + Alpelisib (first compound 0.08 µM) came to 0.298; in the test with KN-93 + Alpelisib (first compound 0.253 µM), 0.319; with KN-93 + Alpelisib (first compound 2.53 µM), 0.304; in the test with KN-93 + Alpelisib (first compound 8 µM), 0.227; in the test with KN-93 + Pictilisib (first compound 0.08 µM), 0.257; with KN-93 + Pictilisib (first compound 0.253 µM) it was 0.307. Moreover, the figures for the relative viability in the test with KN-93 + Pictilisib (first compound 2.53 µM) and in the test with KN-93 + Pictilisib (first compound 8 µM) were 0.211 and 0.247, respectively.
For NCI-H1792, the relative viability with KN-93 + Alpelisib (first compound 0.253 µM) was determined as 0.759; with KN-93 + Alpelisib (first compound 2.53 µM) it was 0.735; with KN-93 + Alpelisib (first compound 8 µM) it was 0.458; with KN-93 + Phenformin (first compound 0.08 µM) it was 0.177; in the test with KN-93 + Phenformin (first compound 2.53 µM), 0.25; with KN-93 + Phenformin (first compound 8 µM), 0.258. The relative viability in the test with KN-93 + Pictilisib (first compound 0.253 µM) came to 0.233; with KN-93 + Pictilisib (first compound 2.53 µM), 0.253; with KN-93 + Pictilisib (first compound 8 µM), 0.223.
In the case of NCI-H2342, the relative viability with KN-93 + Vorinostat (first compound 0.08 µM) is 0.635; in the test with KN-93 + Vorinostat (first compound 0.253 µM), 0.8; in the test with KN-93 + Vorinostat (first compound 2.53 µM), 0.835; in the test with KN-93 + Vorinostat (first compound 8 µM), 0.719; in the test with KN-93 + Tozasertib (first compound 0.08 µM), 0.471; with KN-93 + Tozasertib (first compound 0.253 µM), 0.492. Moreover, the relative viability worked out at 0.556 with KN-93 + Tozasertib (first compound 2.53 µM); 0.421 with KN-93 + Tozasertib (first compound 8 µM); 0.536 with KN-93 + Phenformin (first compound 0.08 µM); 0.62 with KN-93 + Phenformin (first compound 0.253 µM); 0.671 with KN-93 + Phenformin (first compound 2.53 µM); 0.487 with KN-93 + Phenformin (first compound 8 µM).
For the cell line SW 900, the relative viability in the test with KN-93 + Vorinostat (first compound 0.08 µM) is 0.592; with KN-93 + Vorinostat (first compound 0.253 µM) it was 0.333; in the test with KN-93 + Vorinostat (first compound 2.53 µM), 0.624; with KN-93 + Vorinostat (first compound 8 µM), 0.192; with KN-93 + Tozasertib (first compound 0.08 µM) it was 0.529; in the test with KN-93 + Tozasertib (first compound 0.253 µM), 0.544. For the same cell line, the relative viability with KN-93 + Tozasertib (first compound 2.53 µM) is 0.598; with KN-93 + Tozasertib (first compound 8 µM), 0.368; with KN-93 + Phenformin (first compound 0.08 µM) it was 0.547; with KN-93 + Phenformin (first compound 0.253 µM), 0.474; with KN-93 + Phenformin (first compound 2.53 µM), 0.656; with KN-93 + Phenformin (first compound 8 µM), 0.554.
